The text below walks through data of patent US8901138B2, “Sulfoximine substituted quinazolines for pharmaceutical compositions” (Boehringer Ingelheim International GmbH, priority 2012, dated 2014).

The test concerns the target T1, MNK2a (Homo sapiens, UniProt Q9HBH9).
T1 construct: made in house
Put plainly: MNK2a in vitro kinase assay (assay 1), ADP-Glo. Type of test: biochemical. The note with it: preactivated GST-MNK2a, 20 μM ATP, read-out: MNK2 IC50. How it is done: A. MNK2a In Vitro Kinase Assay (Assay 1)
ASSAY SETUP: The inhibition of kinase activity of MNK2a was assessed using preactivated GST-MNK2a. The white, 384-well OptiPlate F plates were purchased from Perkin Elmer. The ADP-Glo Kinase Assay (including ultra pure ATP) was purchased from Promega (V9103). Activated MNK2a was obtained as described in WO2011/104340. The unlabeled eIF4E peptide (NH2-[…]—CONH2) (SEQ ID NO: 1), differing from Seq. ID No. 5 of WO 2011/104340 by the C-terminal —CONH2 group, was purchased from Thermo Fisher Scientific. All other materials were of highest grade commercially available. Compounds are tested in either serial dilutions or single dose concentrations. The compound stock solutions are 10 mM in 100% DMSO The serial compound dilutions are prepared in 100% DMSO followed by 1:27.3 intermediate dilution in assay buffer. The final DMSO concentration in assay will be <3%. In the 384-well plates 3 μl of test compound from the intermediate dilution is mixed with 4 μl of the activated MNK2 enzyme (final concentration of 10 nM) and 4 μl of the peptide (final concentration of 25 μM)/ultra pure ATP (final concentration of 20 μM), all dissolved in assay buffer. This step is followed by an incubation time of 90 min, then 10 μl of ADP Glo reagent are added, followed by 40 min of incubation. Then 20 μl of kinase detection reagent are admixed. The plates are sealed and after an incubation period of 30 min, the luminescence signal is measured in an Envision reader to determine the amount of produced ADP. All incubation steps are performed at room temperature. The assay buffer consists of 20 mM HEPES, 2 mM DTT, 0.01% BSA, 20 mM MgCl2 and 0.1% Pluronic F-127.
Each assay microtiter plate contains wells with vehicle controls instead of compound (1% DMSO in water) as reference for the high signal (100% CTL, high signal), and wells containing a potent MNK2 inhibitor (final 20 μM, 1% DMSO) as reference for low signal (0% CTL, low signal).
The luminescent signal generated is proportional to the ADP concentration produced and is correlated with activated MNK2 activity. The analysis of the data is performed by the calculation of the percentage of ATP consumption of activated MNK2 in the presence of the test compound compared to the consumption of ATP in the presence of activated MNK2 without compound. (RLU(sample)−RLU(low control))*100/(RLU(high value)−RLU(low control)) [RLU=relative luminescence units]
An inhibitor of the MNK2 enzyme will give values between 100% CTL (no inhibition) and 0% CTL (complete inhibition). Values of more than 100% CTL are normally related to compound/sample specific physico-chemical properties (e.g. solubility, light absorbance, fluorescence).
IC50 values based on dose response curves are calculated with the AssayExplorer software.

T1 sequence (Q9HBH9 whole entry): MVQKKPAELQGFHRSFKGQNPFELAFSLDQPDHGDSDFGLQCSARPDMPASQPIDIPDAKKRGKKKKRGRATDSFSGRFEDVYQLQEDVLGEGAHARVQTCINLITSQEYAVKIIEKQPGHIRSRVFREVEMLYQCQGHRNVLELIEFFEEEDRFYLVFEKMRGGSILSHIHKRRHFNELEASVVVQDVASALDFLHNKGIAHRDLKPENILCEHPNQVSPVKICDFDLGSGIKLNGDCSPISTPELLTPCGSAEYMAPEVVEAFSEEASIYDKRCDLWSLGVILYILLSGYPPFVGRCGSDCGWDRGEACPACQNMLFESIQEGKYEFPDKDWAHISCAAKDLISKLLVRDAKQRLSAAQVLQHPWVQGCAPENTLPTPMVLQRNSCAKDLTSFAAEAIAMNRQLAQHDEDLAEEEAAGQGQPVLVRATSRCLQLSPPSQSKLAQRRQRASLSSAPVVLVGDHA

With `Cc1cc(N=S(C)(C)=O)cc2ncnc(Nc3ccc(F)cc3OC3CCC(O)C3)c12` (racemic) [Example 4.3], the IC50 worked out at 3 nM.
For `CS(C)(=O)=Nc1cc(Cl)c2c(Nc3ccc(F)cc3O[C@@H]3CO[C@H]4[C@@H]3OC[C@@H]4O)ncnc2c1` [Example 1.3] the value was 1 nM.
Under `CS(C)(=O)=Nc1cc(C(F)(F)F)c2c(Nc3ccc(F)cc3O[C@H]3CCOC3)ncnc2c1` [Example 1.5] stands 3 nM; under `CS(C)(=O)=Nc1cc(Cl)c2c(Nc3ccc(F)cc3O[C@@H]3CO[C@H]4[C@@H]3OC[C@H]4O)ncnc2c1` [Example 1.6], 1 nM; under `O=S1(=Nc2cc(Cl)c3c(Nc4ccc(F)cc4O[C@@H]4CO[C@@H]5CCO[C@@H]54)ncnc3c2)CCCC1` [Example 1.7], 1 nM.
For `O=S1(=Nc2cc(Cl)c3c(Nc4ccc(F)cc4O[C@H]4CCOC4)ncnc3c2)CCCC1` [Example 1.8] the value was 1 nM; for `CS(C)(=O)=Nc1cc(Br)c2c(Nc3ccc(F)cc3O[C@H]3CCOC3)ncnc2c1` [Example 1.11], 1 nM; for `CO[C@@H]1CO[C@H]2[C@@H]1OC[C@H]2Oc1cc(F)ccc1Nc1ncnc2cc(N=S3(=O)CCCC3)cc(Cl)c12` [Example 1.13], 1 nM.
For the compound `CS(C)(=O)=Nc1cc(Cl)c2c(Nc3ccc(F)cc3O[C@H]3CCOC3)ncnc2c1` [Example 1.14], the IC50 is 1 nM.
On to `CS(C)(=O)=Nc1cc(Cl)c2c(Nc3cccnc3O[C@H]3CC[C@H](O)CC3)ncnc2c1` [Example 1.16], for which the IC50 was found to be 1 nM.
Under `Cc1cc(N=S(C)(C)=O)cc2ncnc(Nc3ccc(F)cc3O[C@@H]3CC[C@H]3O)c12` [Example 1.34] stands 3 nM; under `Cc1cc(N=S(C)(C)=O)cc2ncnc(Nc3ccc(F)cc3O[C@@H]3CCCC[C@@H]3O)c12` [Example 1.39], 7 nM.
Take `Cc1cc(N=S(C)(C)=O)cc2ncnc(Nc3ccc(F)cc3O[C@@H]3CCOC3)c12` [Example 2.5]: the IC50 came out at 3 nM.
Turning to `COc1cc(N=S2(=O)CCCC2)cc2ncnc(Nc3ccc(F)cc3O[C@@H]3CO[C@H]4[C@@H]3OC[C@H]4OC)c12` [Example 2.9], the IC50 came to 1 nM.
Under `COc1cc(N=S2(=O)CCCC2)cc2ncnc(Nc3cccnc3O[C@H]3CC[C@H](O)CC3)c12` [Example 2.18] stands 1 nM; under `CCS(C)(=O)=Nc1cc(C)c2c(Nc3ccc(F)cc3O[C@H]3CC[C@H](O)CC3)ncnc2c1` (stereo partly shown) [Example 2.22], 3 nM; under `Cc1cc(N=S2(=O)CCCC2)cc2ncnc(Nc3ccc(F)cc3OC3COCCOC3)c12` [Example 2.25], 2 nM.
Under `CS(C)(=O)=Nc1cc(F)c2c(Nc3ccc(F)cc3OC3CCCC3)ncnc2c1` [Example 2.29] stands 3 nM.
`Cc1cc(N=S2(=O)CCCC2)cc2ncnc(Nc3ccc(F)cc3O[C@@H]3CO[C@H]4[C@@H]3OC[C@H]4O)c12` [Example 2.36]: the IC50 was determined as 2 nM.
Regarding `Cc1cc(N=S(C)(C)=O)cc2ncnc(Nc3ccc(F)cc3O[C@@H]3CO[C@@H]4CCO[C@@H]43)c12` [Example 2.39], the IC50 worked out at 2 nM.
Under `Cc1cc(N=S2(=O)CCCC2)cc2ncnc(Nc3ccc(F)cc3O[C@@H]3CO[C@@H]4CCO[C@@H]43)c12` [Example 2.42] stands 1 nM.
With `CO[C@@H]1CO[C@H]2[C@@H]1OC[C@H]2Oc1cc(F)ccc1Nc1ncnc2cc(N=S3(=O)CCCC3)cc(C)c12` [Example 2.43], the IC50 came out at 1 nM.
Consider `CO[C@H]1CC[C@H](Oc2cc(F)ccc2Nc2ncnc3cc(N=S4(=O)CCCC4)cc(C)c23)CC1` [Example 2.48], for which the half-inhibitory concentration (IC50) turned out to be 2 nM.
For `Cc1cc(N=S(C)(C)=O)cc2ncnc(Nc3ccc(F)cc3OC3COCCOC3)c12` [Example 2.60] the value was 3 nM.
For `CO[C@H]1CC[C@H](Oc2ncccc2Nc2ncnc3cc(N=S(C)(C)=O)cc(C)c23)CC1` [Example 2.68] the value was 3 nM.
